d = 2'-deoxy (DNA)
Tests used:
AsPC-1 cells = experiment: Scratch wound healing assay; assay type: cell-based, human; conditions: AsPC-1, siRNA 50 nM vs scrambled 5 nM, 5 μM aphidicolin
Experimental: Cells were seeded into Essen ImageLock 96-well plates. Cells were transfected with siRNA shortly after cells completely attached at 80 % confluency. […] The wound confluence was obtained and analyzed by using the IncuCyte phase-contrast imaging and scratch wound assay system and software (Essen Bioscience, USA). Wound closure was assessed by comparing the mean relative wound density (%RWD) according to the following formula: % RWD = 100 × w(t) − w(0)/[…]. Here, w(t) is the density of wounded area at time t and c(t) is the density of cell region at time t. Each experiment was conducted in triplicates.
We therefore assessed a possible contribution of ANO1 in PDAC cell migration using wound healing assay. […] The experiments were conducted in the presence of 5 μM aphidicolin to rule out a possible effect on cell proliferation. […] AsPC-1 cells were therefore not well suited for studies of lateral motility.
Fig. 9 ANO1 supports migration of PDAC cells. Wound healing assay is shown as relative wound density (density of wounded area relative to confluency of cell region) over time. Aphidicolin (5 μM) was added to stop proliferation. a AsPC-1 cells and b BxPC-3 cells after transfection with either scrambled siRNA (5 nM) or siRNA targeting ANO1 (50 nM). c BxPC-3 cells in presence of different inhibitors. Data shown represents mean ± s.e.m. of n = 4 experiments; each run was carried out in triplicates

[1] = tested on: bronchial epithelial cells; design: method as in Scudieri et al. [39]; conditions: ref Scudieri et al. [39], cited from earlier work
[2] = tested on: HPDE, Capan-1, AsPC-1 and BxPC-3 cells; experiment: Homogeneous caspases assay after gemcitabine treatment; assay type: cell-based, human; conditions: T16Ainh-A01, 24 h
Experimental: To assess cell proliferation and apoptosis, cells were plated in duplicates on a 96-well plate and incubated in 100 μl of the cell line appropriate media described above. Cells were transfected with siRNA soon after complete attachment (approx. 3 h after seeding). Cells were treated with vehicle, 20 μM gemcitabine, 20 μM T16Ainh-A01, or 10 μM free NS3728 (see below) after culture in a humidified 37 °C and 5 % CO2 incubator overnight. BrdU incorporation was measured using Cell Proliferation ELISA, BrdU (chemiluminescent) (Roche Diagnostics A/S, Denmark) following the manufacturer’s instructions. Caspases 3, 6, and 7 activation was evaluated using Homogeneous Caspases Assay (fluorimetric) (Roche Diagnostics A/S, Denmark). […]

HPDE cells = experiment: BrdU incorporation cell proliferation assay; assay type: cell-based, human; conditions: inhibitor 20 μM, 24 h
Experimental: (§1) To assess cell proliferation and apoptosis, cells were plated in duplicates on a 96-well plate and incubated in 100 μl of the cell line appropriate media described above. Cells were transfected with siRNA soon after complete attachment (approx. 3 h after seeding). Cells were treated with vehicle, 20 μM gemcitabine, 20 μM T16Ainh-A01, or 10 μM free NS3728 (see below) after culture in a humidified 37 °C and 5 % CO2 incubator overnight. BrdU incorporation was measured using Cell Proliferation ELISA, BrdU (chemiluminescent) (Roche Diagnostics A/S, Denmark) following the manufacturer’s instructions. Caspases 3, 6, and 7 activation was evaluated using Homogeneous Caspases Assay (fluorimetric) (Roche Diagnostics A/S, Denmark).
(§2) Fig. 7 VRAC, but not ANO1, regulates cellular proliferation. a Summary of BrdU incorporation in HPDE, Capan-1, AsPC-1, and BxPC-3 cells after various treatments as indicated. Cells were transfected shortly after complete attachment (approx. 3 h) and BrdU incorporation was assessed 36 h after transfection. To investigate effect of inhibitors, cells were incubated for 24 h with respective inhibitor. Values shown are relative to appropriate control. Data shown represents mean ± s.e.m. of n = 4–6 individual experiments. **p ≤ 0.01 and ***p ≤ 0.001 when compared with control

CFPAC-1 = tested on: CFPAC-1; design: method as in Mazzone et al. [23]; conditions: CFPAC-1, 10 μM, ref Mazzone et al. [23]; cited from earlier work
Capan-1 cells = experiment: BrdU incorporation cell proliferation assay; assay type: cell-based, human; conditions: Capan-1, inhibitor 20 μM, 24 h
Experimental: as §1, §2

siRNA targeting ANO1: Predesigned siRNA oligo from Sigma-Aldrich, 5′-CCUUCAACGUCAGUGACUU[dT][dT]-3′, 5′-AAGUCACUGACGUUGAAGG[dT][dT]-3′ (RNA, 3' dTdT, backbone not given here)
migration (relative wound density over time) (AsPC-1 cells): significantly decreased migration

CCc1c(C)nc(SCC(=O)Nc2nc(-c3ccc(OC)cc3)cs2)[nH]c1=O [T16Ainh-A01, 2-[(5-Ethyl-1,6-dihydro-4-methyl-6-oxo-2-pyrimidinyl)thio]-N-[4-(4-methoxyphenyl)-2-thiazolyl]acetamide]
inhibition of Ca2+-activated Cl− secretion ([1]; 10 μM): relatively weak inhibition
UTP-induced Cl− secretion in short-circuit current recordings ([1]; cells prior exposed to 10 μM): significantly attenuated
protection from apoptosis (Caspase-3 activity) [2]: less pronounced
proliferation (BrdU incorporation) (HPDE cells): showed inhibited proliferation
proliferation (CFPAC-1): decrease in proliferation

CC(C)(C)C1CCc2c(sc(NC(=O)c3ccco3)c2C(=O)O)C1 (stereo not shown) [CaCCinh-A01, 6-(1,1-dimethylethyl)-2-[(2-furanylcarbonyl)amino]-4,5,6,7-tetrahydrobenzo[b]thiophene-3-carboxylic acid]
proliferation (BrdU incorporation) (Capan-1 cells): decreased proliferation in Capan-1 slightly
